Results published in the NIST ThermoML archive (doi:10.1016/j.fluid.2006.06.022).
Numbers after ± are expanded uncertainties.

Details: Liquid, Ebulliometric method (Recirculating still)

Row | Compound | vapor or sublimation pressure (313.15 K) [kPa] | vapor or sublimation pressure (323.15 K) [kPa] | vapor or sublimation pressure (333.15 K) [kPa] | vapor or sublimation pressure (343.15 K) [kPa] | vapor or sublimation pressure (353.15 K) [kPa] | vapor or sublimation pressure (363.15 K) [kPa]
1 | CC(F)(F)F [1,1,1-trifluoroethane] | 1831 ± 9 | 2307 ± 10 | 2874 ± 13 |  |  | 
2 | CCC [propane] | 1374 ± 6 | 1712 ± 8 | 2115 ± 9 | 2586 ± 11 | 3151 ± 14 | 3767 ± 16
